# According to patent publication US20210070748A1, “INHIBITORS OF BRUTONS TYROSINE KINASE” (Pharmacyclics LLC, priority 2015, published 2021):
# Where two headings read alike, the source gives them in different places.
# How the values were obtained:
# Type in all cases: biochemical
# SRC = SRC (Homo sapiens, UniProt P12931); test: Inhibition of a panel of kinases, in vitro HotSpot kinase assay: SRC
# Description: (§1) The degree of inhibition of a panel of kinases is determined using the in vitro HotSpot kinase assay (purified enzymes, ^33P-ATP, an appropriate substrate and 1 μM ATP).
# EGFR = EGFR (Homo sapiens, UniProt P00533); test: Inhibition of a panel of kinases, in vitro HotSpot kinase assay: EGFR
# EGFR, sequence (P00533 25-1210): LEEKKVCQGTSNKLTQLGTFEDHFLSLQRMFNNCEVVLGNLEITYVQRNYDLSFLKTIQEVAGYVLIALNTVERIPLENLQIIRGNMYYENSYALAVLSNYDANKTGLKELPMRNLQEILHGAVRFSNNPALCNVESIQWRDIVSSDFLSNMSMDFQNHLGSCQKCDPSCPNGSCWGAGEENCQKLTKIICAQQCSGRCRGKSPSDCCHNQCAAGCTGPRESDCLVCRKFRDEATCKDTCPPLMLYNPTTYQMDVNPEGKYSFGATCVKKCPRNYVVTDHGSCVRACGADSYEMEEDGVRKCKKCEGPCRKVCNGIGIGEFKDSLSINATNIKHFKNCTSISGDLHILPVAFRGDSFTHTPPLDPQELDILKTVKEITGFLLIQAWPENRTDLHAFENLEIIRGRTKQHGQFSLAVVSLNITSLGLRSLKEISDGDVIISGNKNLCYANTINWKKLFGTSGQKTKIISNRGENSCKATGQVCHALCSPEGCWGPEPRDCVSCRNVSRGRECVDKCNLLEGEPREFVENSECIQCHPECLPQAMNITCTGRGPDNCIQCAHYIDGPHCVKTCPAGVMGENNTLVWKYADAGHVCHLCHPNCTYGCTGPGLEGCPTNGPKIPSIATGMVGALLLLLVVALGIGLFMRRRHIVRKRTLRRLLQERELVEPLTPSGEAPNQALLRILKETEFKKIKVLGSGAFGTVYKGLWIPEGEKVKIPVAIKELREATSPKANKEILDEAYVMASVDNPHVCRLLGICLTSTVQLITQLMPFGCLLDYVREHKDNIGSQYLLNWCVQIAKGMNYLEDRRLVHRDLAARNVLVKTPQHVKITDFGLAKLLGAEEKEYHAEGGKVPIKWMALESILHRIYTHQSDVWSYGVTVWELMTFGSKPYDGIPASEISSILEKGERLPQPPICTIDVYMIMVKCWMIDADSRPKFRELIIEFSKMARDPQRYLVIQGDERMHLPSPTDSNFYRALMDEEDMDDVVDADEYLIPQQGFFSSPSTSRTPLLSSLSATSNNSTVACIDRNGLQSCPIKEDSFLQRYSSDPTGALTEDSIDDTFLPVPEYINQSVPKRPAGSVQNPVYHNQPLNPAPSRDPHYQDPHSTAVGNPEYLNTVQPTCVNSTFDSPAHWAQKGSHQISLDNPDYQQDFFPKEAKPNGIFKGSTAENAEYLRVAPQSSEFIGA
# Description: as §1
# TEC = target: T1, TEC (Homo sapiens, UniProt P42680); test: Inhibition of a panel of kinases, in vitro HotSpot kinase assay: TEC
# T1 sequence (P42680 1-631): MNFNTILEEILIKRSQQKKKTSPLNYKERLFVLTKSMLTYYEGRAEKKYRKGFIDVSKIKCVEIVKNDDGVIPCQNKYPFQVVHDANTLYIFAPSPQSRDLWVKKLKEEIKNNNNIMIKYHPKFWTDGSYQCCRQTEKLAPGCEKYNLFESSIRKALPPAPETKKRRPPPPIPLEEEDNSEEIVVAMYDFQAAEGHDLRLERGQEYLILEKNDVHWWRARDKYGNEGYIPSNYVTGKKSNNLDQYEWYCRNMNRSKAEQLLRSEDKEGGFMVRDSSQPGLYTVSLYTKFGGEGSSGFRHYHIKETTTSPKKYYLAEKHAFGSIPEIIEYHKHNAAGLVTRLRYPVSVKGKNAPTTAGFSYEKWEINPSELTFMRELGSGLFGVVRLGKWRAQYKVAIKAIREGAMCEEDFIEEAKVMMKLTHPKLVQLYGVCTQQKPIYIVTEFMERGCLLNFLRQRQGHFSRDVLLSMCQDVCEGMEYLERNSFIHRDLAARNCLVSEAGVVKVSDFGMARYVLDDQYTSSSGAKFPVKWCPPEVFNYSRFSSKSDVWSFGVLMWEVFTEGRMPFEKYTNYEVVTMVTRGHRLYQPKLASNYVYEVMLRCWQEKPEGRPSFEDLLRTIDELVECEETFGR
# Description: as §1
# ITK = target: T2, ITK (Homo sapiens, UniProt Q08881); test: Inhibition of a panel of kinases, in vitro HotSpot kinase assay: ITK
# T2 sequence (Q08881 1-620): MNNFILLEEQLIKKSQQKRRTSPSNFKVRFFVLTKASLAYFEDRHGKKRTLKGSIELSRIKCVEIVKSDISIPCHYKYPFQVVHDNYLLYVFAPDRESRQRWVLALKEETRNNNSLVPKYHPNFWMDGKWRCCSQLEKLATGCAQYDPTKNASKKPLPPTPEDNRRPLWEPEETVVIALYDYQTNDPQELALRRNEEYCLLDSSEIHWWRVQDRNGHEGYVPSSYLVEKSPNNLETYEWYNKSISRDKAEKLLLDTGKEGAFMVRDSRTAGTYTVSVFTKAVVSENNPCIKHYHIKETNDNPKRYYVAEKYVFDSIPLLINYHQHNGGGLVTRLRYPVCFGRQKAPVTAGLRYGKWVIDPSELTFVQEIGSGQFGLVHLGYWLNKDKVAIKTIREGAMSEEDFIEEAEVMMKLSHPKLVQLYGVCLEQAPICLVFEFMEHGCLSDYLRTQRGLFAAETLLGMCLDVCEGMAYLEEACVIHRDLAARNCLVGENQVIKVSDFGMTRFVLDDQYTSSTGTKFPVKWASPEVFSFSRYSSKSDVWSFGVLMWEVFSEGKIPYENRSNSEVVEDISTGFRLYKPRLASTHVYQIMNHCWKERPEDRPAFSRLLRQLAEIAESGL
# Description: as §1
# LCK = LCK (Homo sapiens, UniProt P06239); test: Inhibition of a panel of kinases, in vitro HotSpot kinase assay: LCK; conditions: read-out: IC50 LCK
# LCK, sequence (P06239 whole entry): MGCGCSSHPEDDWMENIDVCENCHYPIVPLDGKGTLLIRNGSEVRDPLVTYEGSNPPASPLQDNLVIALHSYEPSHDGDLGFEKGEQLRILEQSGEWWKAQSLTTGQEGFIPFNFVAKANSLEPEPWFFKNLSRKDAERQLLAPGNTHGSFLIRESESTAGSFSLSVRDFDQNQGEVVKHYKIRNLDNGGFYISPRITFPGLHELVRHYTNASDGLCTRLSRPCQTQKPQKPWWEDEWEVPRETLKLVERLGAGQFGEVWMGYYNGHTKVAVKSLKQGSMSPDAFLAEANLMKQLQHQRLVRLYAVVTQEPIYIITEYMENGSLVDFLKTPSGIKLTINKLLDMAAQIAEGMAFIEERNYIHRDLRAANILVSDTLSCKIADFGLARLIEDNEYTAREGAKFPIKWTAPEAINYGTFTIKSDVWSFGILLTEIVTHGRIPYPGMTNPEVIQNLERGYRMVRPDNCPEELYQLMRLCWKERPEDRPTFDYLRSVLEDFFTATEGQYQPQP
# JAK3 = target: T3, JAK3 (Homo sapiens, UniProt P52333); test: Inhibition of a panel of kinases, in vitro HotSpot kinase assay: JAK3; conditions: read-out: IC50 JAK3
# T3 sequence (P52333 1-1124): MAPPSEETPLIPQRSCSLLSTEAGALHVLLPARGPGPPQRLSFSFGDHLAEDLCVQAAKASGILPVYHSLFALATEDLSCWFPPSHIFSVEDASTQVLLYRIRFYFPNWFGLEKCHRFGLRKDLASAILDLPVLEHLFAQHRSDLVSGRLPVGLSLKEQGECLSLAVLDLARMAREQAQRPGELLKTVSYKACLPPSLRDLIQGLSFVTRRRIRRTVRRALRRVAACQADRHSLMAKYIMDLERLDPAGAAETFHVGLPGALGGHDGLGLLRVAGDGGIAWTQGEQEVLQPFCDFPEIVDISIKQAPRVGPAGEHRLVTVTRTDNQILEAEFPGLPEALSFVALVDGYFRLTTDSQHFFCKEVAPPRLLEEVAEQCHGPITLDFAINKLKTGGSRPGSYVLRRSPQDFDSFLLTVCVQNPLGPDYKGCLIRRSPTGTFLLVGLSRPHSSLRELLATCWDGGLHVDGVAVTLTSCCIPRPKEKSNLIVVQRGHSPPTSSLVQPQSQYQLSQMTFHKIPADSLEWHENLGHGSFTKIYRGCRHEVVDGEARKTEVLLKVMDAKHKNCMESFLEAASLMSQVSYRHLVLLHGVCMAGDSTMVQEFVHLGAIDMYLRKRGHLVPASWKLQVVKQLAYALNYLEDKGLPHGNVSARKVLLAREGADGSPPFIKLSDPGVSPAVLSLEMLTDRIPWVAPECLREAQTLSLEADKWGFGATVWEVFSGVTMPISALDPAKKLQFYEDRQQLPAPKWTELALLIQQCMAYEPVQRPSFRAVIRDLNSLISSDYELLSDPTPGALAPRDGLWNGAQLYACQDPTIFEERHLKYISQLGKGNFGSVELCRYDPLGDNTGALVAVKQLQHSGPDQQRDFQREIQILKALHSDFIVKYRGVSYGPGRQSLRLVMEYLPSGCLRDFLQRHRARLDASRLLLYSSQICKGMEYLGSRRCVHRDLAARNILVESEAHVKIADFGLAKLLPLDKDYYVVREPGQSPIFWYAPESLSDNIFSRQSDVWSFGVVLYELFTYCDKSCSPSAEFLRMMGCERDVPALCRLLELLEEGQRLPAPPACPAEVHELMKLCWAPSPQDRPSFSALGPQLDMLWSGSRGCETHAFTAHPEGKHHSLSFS
# [1] = Table 13, A compounds, 1 μM ATP
# SRC, sequence (P12931 whole entry): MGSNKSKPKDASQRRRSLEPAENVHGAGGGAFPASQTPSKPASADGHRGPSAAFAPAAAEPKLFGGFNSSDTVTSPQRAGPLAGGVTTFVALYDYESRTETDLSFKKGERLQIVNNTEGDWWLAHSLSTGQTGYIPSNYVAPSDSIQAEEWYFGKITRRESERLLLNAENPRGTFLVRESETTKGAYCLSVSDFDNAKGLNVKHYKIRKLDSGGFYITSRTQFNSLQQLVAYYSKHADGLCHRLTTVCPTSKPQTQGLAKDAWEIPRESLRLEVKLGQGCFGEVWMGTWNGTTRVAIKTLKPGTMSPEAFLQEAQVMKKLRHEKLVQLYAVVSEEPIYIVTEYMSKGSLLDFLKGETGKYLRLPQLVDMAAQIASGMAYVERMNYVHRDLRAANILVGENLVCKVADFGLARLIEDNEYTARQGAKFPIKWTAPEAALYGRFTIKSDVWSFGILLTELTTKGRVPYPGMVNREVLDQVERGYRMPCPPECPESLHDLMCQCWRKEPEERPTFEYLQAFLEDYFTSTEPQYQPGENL
Compound,IC50 (SRC; [1]),IC50 (EGFR; [1]),IC50 (TEC; [1]),IC50 (ITK; [1]),IC50 (LCK; [1]),IC50 (JAK3; [1]),"IC50 (SRC; E compounds, Table 17)","IC50 (EGFR; E compounds, Table 17)","IC50 (TEC; E compounds, Table 17)","IC50 (ITK; E compounds, Table 17)","IC50 (LCK; E compounds, Table 17)","IC50 (JAK3; E compounds, Table 17)"
"C[C@@H]1[C@H](NC(=O)c2ccc(C3CC3)c(Cl)c2)CCCN1c1cnc(C(N)=O)c(Nc2ccc(N3CCN(C)CC3)cc2)n1 [Example A-189, 5-((2R,3R)-3-(3-chloro-4-cyclopropylbenzamido)-2-methylpiperidin-1-yl)-3-(4-(4-methylpiperazin-1-yl)phenylamino)pyrazine-2-carboxamide]",100 to 1000 nM,1000 to 10000 nM,100 to 1000 nM,100 to 1000 nM,100 to 1000 nM,1000 to 10000 nM,,,,,,
"C=CC(=O)N1CCC[C@@H](Nc2nnc(C(N)=O)c(Nc3cc(C)ns3)n2)C1 [Example E-11, (R)-3-(1-acryloylpiperidin-3-ylamino)-5-(3-methylisothiazol-5-ylamino)-1,2,4-triazine-6-carboxamide]",,,,,,,10 to 100 nM,≤ 10 nM,≤ 10 nM,≤ 10 nM,10 to 100 nM,< 10 nM
"C[C@@H]1[C@H](NC(=O)c2cc(C(C)(C)C)nn2C)CCCN1c1cnc(C(N)=O)c(Nc2cnn(C)c2)n1 [Example E-146, 5-((2R,3R)-3-(3-(tert-butyl)-1-methyl-1H-pyrazole-5-carboxamido)-2-methylpiperidin-1-yl)-3-((1-methyl-1H-pyrazol-4-yl)amino)pyrazine-2-carboxamide]",,,,,,,10 to 100 nM,1000 to 10000 nM,≤ 10 nM,100 to 1000 nM,10 to 100 nM,1000 to 10000 nM
"CC1(c2ccc(Nc3nc(N4CCC[C@@H](n5ccc6cc(C7CC7)ccc6c5=O)C4)cnc3C(N)=O)cc2)CCN(C2CCCC2)CC1 [Example A-141, 3-{[4-(1-cyclopentyl-4-methylpiperidin-4-yl)phenyl]amino}-5-[(3R)-3-(6-cyclopropyl-1-oxo-1,2-dihydroisoquinolin-2-yl)piperidin-1-yl]pyrazine-2-carboxamide]",10 to 100 nM,100 to 1000 nM,≤ 10 nM,10 to 100 nM,10 to 100 nM,100 to 1000 nM,,,,,,
"Cc1cc(Nc2nc(N3CCC[C@@H](n4ccc5cc(C6CC6)ccc5c4=O)C3)cnc2C(N)=O)sn1 [Example A-107, 5-[(3R)-3-(6-cyclopropyl-1-oxo-1,2-dihydroisoquinolin-2-yl)piperidin-1-yl]-3-[(3-methyl-1,2-thiazol-5-yl)amino]pyrazine-2-carboxamide]",> 10000 nM,> 10000 nM,> 10000 nM,> 10000 nM,> 10000 nM,> 10000 nM,,,,,,
"Cn1cc(Nc2nc(N3CCC[C@@H](n4ccc5cc(C6CC6)ccc5c4=O)C3)cnc2C(N)=O)cn1 [Example A-167, 5-[(3R)-3-(6-cyclopropyl-1-oxo-1,2-dihydroisoquinolin-2-yl)piperidin-1-yl]-3-[(1-methyl-1H-pyrazol-4-yl)amino]pyrazine-2-carboxamide]",1000 to 10000 nM,> 10000 nM,10 to 100 nM,> 10000 nM,1000 to 10000 nM,> 10000 nM,,,,,,
"C[C@@H]1[C@H](NC(=O)c2ccc(C3CC3)cc2F)CCCN1c1cnc(C(N)=O)c(Nc2ccc(C3(C)CCN(C4CCCC4)CC3)cc2)n1 [Example A-121, 3-{[4-(1-cyclopentyl-4-methylpiperidin-4-yl)phenyl]amino}-5-[(2R,3R)-3-(4-cyclopropyl-2-fluorobenzamido)-2-methylpiperidin-1-yl]pyrazine-2-carboxamide]",≤ 10 nM,10 to 100 nM,≤ 10 nM,10 to 100 nM,< 10 nM,100 to 1000 nM,,,,,,
"Cn1cc(Nc2nc(N3CCCC(C)(NC(=O)c4ccc(C5CC5)cc4)C3)cnc2C(N)=O)cn1 (stereo not drawn) [Example E-150, 5-(3-(4-cyclopropylbenzamido)-3-methylpiperidin-1-yl)-3-((1-methyl-1H-pyrazol-4-yl)amino)pyrazine-2-carboxamide]",,,,,,,1000 to 10000 nM,> 10000 nM,100 to 1000 nM,> 10000 nM,1000 to 10000 nM,1000 to 10000 nM
"Cc1nc(-c2ccc(C(=O)N[C@@H]3CCCN(c4cnc(C(N)=O)c(Nc5cnn(C)c5)n4)[C@@H]3C)cc2)cs1 [Example E-155, 3-((1-methyl-1H-pyrazol-4-yl)amino)-5-((2R,3R)-2-methyl-3-(4-(2-methylthiazol-4-yl)benzamido)piperidin-1-yl)pyrazine-2-carboxamide]",,,,,,,10 to 100 nM,100 to 1000 nM,≤ 10 nM,100 to 1000 nM,10 to 100 nM,100 to 1000 nM
"C[C@@H]1[C@H](NC(=O)c2noc(C(C)(C)C)n2)CCCN1c1cnc(C(N)=O)c(Nc2cnn(C)c2)n1 [Example E-149, 5-(tert-butyl)-N-((2R,3R)-1-(5-carbamoyl-6-((1-methyl-1H-pyrazol-4-yl)amino)pyrazin-2-yl)-2-methylpiperidin-3-yl)-1,2,4-oxadiazole-3-carboxamide]",,,,,,,1000 to 10000 nM,1000 to 10000 nM,100 to 1000 nM,1000 to 10000 nM,1000 to 10000 nM,1000 to 10000 nM
"C[C@@H]1[C@H](NC(=O)c2ccc(C3CC3)cc2)CCCN1c1cnc(C(N)=O)c(Nc2ccc(N3CCN(C)C[C@@H]3C)cc2)n1 [Example E-148, 5-((2R,3R)-3-(4-cyclopropylbenzamido)-2-methylpiperidin-1-yl)-3-((4-((S)-2,4-dimethylpiperazin-1-yl)phenyl)amino)pyrazine-2-carboxamide]",,,,,,,10 to 100 nM,100 to 1000 nM,≤ 10 nM,10 to 100 nM,10 to 100 nM,100 to 1000 nM
"C=CC(=O)N[C@@H]1CCCN(c2cnc(C(N)=O)c(Nc3cc(C)ns3)n2)[C@@H]1C [Example E-97, 5-((2R,3R)-3-acrylamido-2-methylpiperidin-1-yl)-3-(3-methylisothiazol-5-ylamino)pyrazine-2-carboxamide]",,,,,,,≤ 10 nM,10 to 100 nM,≤ 10 nM,10 to 100 nM,100 to 1000 nM,< 10 nM
